Measurements as given in PubChem BioAssay AID1918996 (Molecular Pharmacology Branch, DTP, NCI, 2023).

Tested on: 349418-098-R-PDC complex spheroid growth
Assay: Anticancer human tumor 349418-098-R-PDC patient-derived lung adenocarcinoma cell line growth inhibition [AhR]
Conditions: for IC50: curve of first compound; for viability, T/C: stronger effect = lower value
Summary of the method: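 Spheroids combined tumor cells with HUVEC endothelial cells and human MSCs as stroma. AhR antagonists were paired with standard or investigational drugs, each dosed in half-log steps down from near clinical Cmax, or from 10 microM where Cmax was unknown.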

[1] = second compound 0.1 µM, first compound 0.0316 µM
[2] = second compound 0.1 µM, first compound 0.1 µM
[3] = second compound 0.316 µM, first compound 0.0316 µM
[4] = second compound 0.316 µM, first compound 0.1 µM
[5] = second compound 1 µM, first compound 0.0316 µM
[6] = second compound 1 µM, first compound 0.1 µM
[7] = second compound 3.16 µM, first compound 0.0316 µM
[8] = second compound 3.16 µM, first compound 0.1 µM
[9] = second compound 10 µM, first compound 0.0316 µM
[10] = second compound 10 µM, first compound 0.1 µM
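Note: spheroids exposed to agents for seven days before luminescence viability read.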

Work on `CC1(C)CCC(CN2CCN(c3ccc(C(=O)NS(=O)(=O)c4ccc(NCC5CCOCC5)c([N+](=O)[O-])c4)c(Oc4cnc5[nH]ccc5c4)c3)CC2)=C(c2ccc(Cl)cc2)C1` + CC(CO)NC(=O)c1cc(-c2ccc(Cl)cc2)nn(-c2cnn(C)c2)c1=O yielded an IC50 (second compound 0.1 µM) of 6.64 µM, an IC50 (second compound 0.316 µM) of 4.53 µM and an IC50 (second compound 1 µM) of 5.47 µM. It also gave an IC50 (second compound 3.16 µM) of 3.02 µM, an IC50 (second compound 10 µM) of under 0.0316 µM and a viability, T/C [1] of 77.7%. It also gave a viability, T/C [2] of 89.9%, a viability, T/C (second compound 0.1 µM, first compound 0.316 µM) of 96.2% and a viability, T/C (second compound 0.1 µM, first compound 1 µM) of 76.9%. The viability, T/C (second compound 0.1 µM, first compound 3.16 µM) was 82.5%, the viability, T/C (second compound 0.1 µM, first compound 10 µM) was 32.2% and the viability, T/C [3] was 85.2%. The viability, T/C [4] was 81.1%, the viability, T/C (second compound 0.316 µM, first compound 0.316 µM) was 70.2% and the viability, T/C (second compound 0.316 µM, first compound 1 µM) was 66.9%. For the same compound, the viability, T/C (second compound 0.316 µM, first compound 3.16 µM) was 65.9%, the viability, T/C (second compound 0.316 µM, first compound 10 µM) was 27.8% and the viability, T/C [5] was 89.3%. The viability, T/C [6] was 97.4%, the viability, T/C (second compound 1 µM, first compound 0.316 µM) was 80% and the viability, T/C (second compound 1 µM, first compound 1 µM) was 65%. It also gave a viability, T/C (second compound 1 µM, first compound 3.16 µM) of 79.2%, a viability, T/C (second compound 1 µM, first compound 10 µM) of 28.2% and a viability, T/C [7] of 80%. It also gave a viability, T/C [8] of 86.8%, a viability, T/C (second compound 3.16 µM, first compound 0.316 µM) of 77% and a viability, T/C (second compound 3.16 µM, first compound 1 µM) of 71.4%. The viability, T/C (second compound 3.16 µM, first compound 3.16 µM) was 49%, the viability, T/C (second compound 3.16 µM, first compound 10 µM) was 24% and the viability, T/C [9] was 45%. For the same compound, the viability, T/C [10] was 54.1%, the viability, T/C (second compound 10 µM, first compound 0.316 µM) was 48.9% and the viability, T/C (second compound 10 µM, first compound 1 µM) was 48.5%. For the same compound, the viability, T/C (second compound 10 µM, first compound 3.16 µM) was 48.2% and the viability, T/C (second compound 10 µM, first compound 10 µM) was 26.6%.
For `CCN(c1cc(-c2ccc(CN3CCOCC3)cc2)cc(C(=O)NCc2c(C)cc(C)[nH]c2=O)c1C)C1CCOCC1` + CC(CO)NC(=O)c1cc(-c2ccc(Cl)cc2)nn(-c2cnn(C)c2)c1=O, the IC50 (second compound 0.1 µM) was over 3 µM, the IC50 (second compound 0.316 µM) was over 3 µM and the IC50 (second compound 1 µM) was over 3 µM. The IC50 (second compound 3.16 µM) was over 3 µM, the IC50 (second compound 10 µM) was 0.273 µM and the viability, T/C (second compound 0.1 µM, first compound 0.00949 µM) was 110%. For the same compound, the viability, T/C (second compound 0.1 µM, first compound 0.03 µM) was 110%, the viability, T/C (second compound 0.1 µM, first compound 0.0949 µM) was 86.7% and the viability, T/C (second compound 0.1 µM, first compound 0.3 µM) was 79.4%. The viability, T/C (second compound 0.1 µM, first compound 0.949 µM) was 87.1%, the viability, T/C (second compound 0.1 µM, first compound 3 µM) was 74.7% and the viability, T/C (second compound 0.316 µM, first compound 0.00949 µM) was 95%. For the same compound, the viability, T/C (second compound 0.316 µM, first compound 0.03 µM) was 118%, the viability, T/C (second compound 0.316 µM, first compound 0.0949 µM) was 107% and the viability, T/C (second compound 0.316 µM, first compound 0.3 µM) was 89.2%. The viability, T/C (second compound 0.316 µM, first compound 0.949 µM) was 96%, the viability, T/C (second compound 0.316 µM, first compound 3 µM) was 76.1% and the viability, T/C (second compound 1 µM, first compound 0.00949 µM) was 114%. The viability, T/C (second compound 1 µM, first compound 0.03 µM) was 123%, the viability, T/C (second compound 1 µM, first compound 0.0949 µM) was 107% and the viability, T/C (second compound 1 µM, first compound 0.3 µM) was 76.2%. The viability, T/C (second compound 1 µM, first compound 0.949 µM) was 95.1%, the viability, T/C (second compound 1 µM, first compound 3 µM) was 59.7% and the viability, T/C (second compound 3.16 µM, first compound 0.00949 µM) was 77.5%. It also gave a viability, T/C (second compound 3.16 µM, first compound 0.03 µM) of 63.4%, a viability, T/C (second compound 3.16 µM, first compound 0.0949 µM) of 72.4% and a viability, T/C (second compound 3.16 µM, first compound 0.3 µM) of 67.9%. For the same compound, the viability, T/C (second compound 3.16 µM, first compound 0.949 µM) was 41.9%, the viability, T/C (second compound 3.16 µM, first compound 3 µM) was 70.4% and the viability, T/C (second compound 10 µM, first compound 0.00949 µM) was 54.2%. It also gave a viability, T/C (second compound 10 µM, first compound 0.03 µM) of 79%, a viability, T/C (second compound 10 µM, first compound 0.0949 µM) of 85.6% and a viability, T/C (second compound 10 µM, first compound 0.3 µM) of 40.5%. It also gave a viability, T/C (second compound 10 µM, first compound 0.949 µM) of 55.5% and a viability, T/C (second compound 10 µM, first compound 3 µM) of 47.9%.
`Cn1ncnc1C1c2n[nH]c(=O)c3cc(F)cc(c23)NC1c1ccc(F)cc1` (stereo not given) + CC(CO)NC(=O)c1cc(-c2ccc(Cl)cc2)nn(-c2cnn(C)c2)c1=O gave an IC50 (second compound 0.1 µM) of over 0.1 µM, an IC50 (second compound 0.316 µM) of over 0.1 µM and an IC50 (second compound 1 µM) of over 0.1 µM. For the same compound, the IC50 (second compound 3.16 µM) was 0.0143 µM, the IC50 (second compound 10 µM) was 0.00421 µM and the viability, T/C (second compound 0.1 µM, first compound 0.000316 µM) was 81.4%. For the same compound, the viability, T/C (second compound 0.1 µM, first compound 0.001 µM) was 85.1%, the viability, T/C (second compound 0.1 µM, first compound 0.00316 µM) was 94% and the viability, T/C (second compound 0.1 µM, first compound 0.01 µM) was 96.2%. For the same compound, the viability, T/C [1] was 84.9%, the viability, T/C [2] was 87.3% and the viability, T/C (second compound 0.316 µM, first compound 0.000316 µM) was 71.8%. The viability, T/C (second compound 0.316 µM, first compound 0.001 µM) was 84.4%, the viability, T/C (second compound 0.316 µM, first compound 0.00316 µM) was 60.6% and the viability, T/C (second compound 0.316 µM, first compound 0.01 µM) was 76.3%. It also gave a viability, T/C [3] of 48%, a viability, T/C [4] of 60.1% and a viability, T/C (second compound 1 µM, first compound 0.000316 µM) of 78.1%. It also gave a viability, T/C (second compound 1 µM, first compound 0.001 µM) of 106%, a viability, T/C (second compound 1 µM, first compound 0.00316 µM) of 83.9% and a viability, T/C (second compound 1 µM, first compound 0.01 µM) of 52.2%. It also gave a viability, T/C [5] of 51.2%, a viability, T/C [6] of 56.8% and a viability, T/C (second compound 3.16 µM, first compound 0.000316 µM) of 83.1%. It also gave a viability, T/C (second compound 3.16 µM, first compound 0.001 µM) of 68.9%, a viability, T/C (second compound 3.16 µM, first compound 0.00316 µM) of 55.7% and a viability, T/C (second compound 3.16 µM, first compound 0.01 µM) of 61%. The viability, T/C [7] was 37.6%, the viability, T/C [8] was 45.3% and the viability, T/C (second compound 10 µM, first compound 0.000316 µM) was 39.9%. For the same compound, the viability, T/C (second compound 10 µM, first compound 0.001 µM) was 64.7%, the viability, T/C (second compound 10 µM, first compound 0.00316 µM) was 59.8% and the viability, T/C (second compound 10 µM, first compound 0.01 µM) was 35.2%. It also gave a viability, T/C [9] of 32.4% and a viability, T/C [10] of 39.2%.
